Reference: article PMC4640066 (Nature Communications, 2015)

Target: T1, γ-TuSC (Saccharomyces cerevisiae, UniProt P53378)
T1 construct: made in house; host or cells: HighFive insect cells
T1 sequence (P53378 1-473): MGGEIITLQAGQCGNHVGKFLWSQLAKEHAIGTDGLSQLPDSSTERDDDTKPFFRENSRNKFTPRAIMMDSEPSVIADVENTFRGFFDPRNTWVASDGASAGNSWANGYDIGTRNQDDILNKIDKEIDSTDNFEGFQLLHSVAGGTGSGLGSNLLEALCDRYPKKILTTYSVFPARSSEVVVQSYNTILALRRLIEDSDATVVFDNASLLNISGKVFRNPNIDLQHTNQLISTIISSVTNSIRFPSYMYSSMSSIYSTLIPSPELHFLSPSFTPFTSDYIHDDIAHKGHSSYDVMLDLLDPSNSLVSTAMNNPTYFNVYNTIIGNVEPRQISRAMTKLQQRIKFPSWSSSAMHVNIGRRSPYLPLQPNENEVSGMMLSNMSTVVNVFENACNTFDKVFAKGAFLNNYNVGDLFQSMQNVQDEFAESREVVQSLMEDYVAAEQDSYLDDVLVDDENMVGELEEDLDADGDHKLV
T1 sequence (P38863 1-823 partner): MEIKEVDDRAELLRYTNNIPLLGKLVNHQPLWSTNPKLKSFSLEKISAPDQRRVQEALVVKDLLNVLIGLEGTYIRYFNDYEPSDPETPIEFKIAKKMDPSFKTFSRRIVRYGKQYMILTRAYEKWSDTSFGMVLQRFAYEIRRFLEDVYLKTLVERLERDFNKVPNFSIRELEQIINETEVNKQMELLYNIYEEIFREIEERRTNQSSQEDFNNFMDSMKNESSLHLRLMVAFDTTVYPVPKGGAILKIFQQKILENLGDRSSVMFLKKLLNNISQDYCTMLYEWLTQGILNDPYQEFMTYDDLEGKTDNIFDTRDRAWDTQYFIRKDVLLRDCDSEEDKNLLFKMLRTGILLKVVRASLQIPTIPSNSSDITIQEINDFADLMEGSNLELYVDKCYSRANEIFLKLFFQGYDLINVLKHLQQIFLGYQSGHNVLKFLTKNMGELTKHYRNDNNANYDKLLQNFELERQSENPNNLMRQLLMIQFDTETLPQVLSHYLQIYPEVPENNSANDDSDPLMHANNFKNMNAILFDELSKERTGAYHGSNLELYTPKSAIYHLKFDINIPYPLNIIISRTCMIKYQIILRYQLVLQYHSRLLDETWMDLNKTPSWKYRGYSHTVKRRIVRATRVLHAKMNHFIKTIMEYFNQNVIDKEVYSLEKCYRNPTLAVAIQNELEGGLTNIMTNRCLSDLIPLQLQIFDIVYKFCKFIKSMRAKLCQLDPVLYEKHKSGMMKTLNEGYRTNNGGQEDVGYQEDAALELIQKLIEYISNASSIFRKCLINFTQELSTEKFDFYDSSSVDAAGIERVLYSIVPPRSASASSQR
T1 sequence (P53540 1-846 partner): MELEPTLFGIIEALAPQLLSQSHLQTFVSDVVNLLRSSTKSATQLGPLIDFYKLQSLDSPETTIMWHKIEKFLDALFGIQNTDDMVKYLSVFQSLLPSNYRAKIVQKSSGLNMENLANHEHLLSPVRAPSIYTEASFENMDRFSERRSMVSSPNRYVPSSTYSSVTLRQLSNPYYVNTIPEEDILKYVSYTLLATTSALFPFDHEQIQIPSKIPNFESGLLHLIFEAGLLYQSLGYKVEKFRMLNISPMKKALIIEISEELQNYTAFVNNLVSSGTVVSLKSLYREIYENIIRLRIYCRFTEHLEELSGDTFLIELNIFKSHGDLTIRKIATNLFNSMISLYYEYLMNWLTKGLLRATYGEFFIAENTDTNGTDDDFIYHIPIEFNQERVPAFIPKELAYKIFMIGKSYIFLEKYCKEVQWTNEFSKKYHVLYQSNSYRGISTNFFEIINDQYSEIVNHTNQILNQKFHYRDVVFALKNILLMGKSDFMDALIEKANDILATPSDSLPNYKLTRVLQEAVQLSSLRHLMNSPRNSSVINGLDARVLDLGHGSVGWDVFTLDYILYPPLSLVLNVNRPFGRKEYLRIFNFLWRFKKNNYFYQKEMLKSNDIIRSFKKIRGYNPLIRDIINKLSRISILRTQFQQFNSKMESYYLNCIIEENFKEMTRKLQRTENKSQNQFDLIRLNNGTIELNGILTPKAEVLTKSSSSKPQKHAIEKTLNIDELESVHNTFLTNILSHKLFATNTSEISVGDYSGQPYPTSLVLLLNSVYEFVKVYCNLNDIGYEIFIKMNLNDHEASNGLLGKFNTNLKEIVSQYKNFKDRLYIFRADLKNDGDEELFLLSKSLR
Assay: γ-TuSC capping to paclitaxel-stabilized MTs
Type: biochemical
Details: 50 μM
Experimental: γ-TuSC was diluted in RB buffer containing 10 μM paclitaxel to reach a final protein concentration of 0.5 μM and incubated with 50 μM of gatastatin for 30 min at 25 °C. Polymerized MTs were prepared by incubation of ∼5 mg ml^−1 α/β-tubulin for 30 min at 37 °C with 1 mM GTP; then paclitaxel was added (final 10 μM). GTP was removed from paclitaxel-stabilized MTs with ultracentrifugation at 240,000g for 10 min at 25 °C. Paclitaxel-stabilized MTs were added to γ-TuSC (final ∼1.2 mg ml^−1). Next, γ-TuSC was incubated with paclitaxel-stabilized MTs for 30 min; MTs and MT-bound γ-TuSC were collected with ultracentrifugation at 240,000g for 10 min at 25 °C and finally placed on poly-L-lysine-coated coverslips. After incubation for 15 min, coverslips were immediately fixed with cold MeOH (−20 °C). Coverslips were blocked with PBS containing 0.5% bovine serum albumin and were incubated with anti-α-tubulin (1:200 dilution, MBL, Cat# PM054) and anti-penta His (1:200 dilution, Qiagen, Cat# 34660) antibodies. After staining with Alexa^488-conjugated anti-rabbit IgG (1:2000 dilution, Invitrogen) and Alexa^568-conjugated anti-mouse IgG (1:2000 dilution, Invitrogen), the coverslips were washed four times with PBS and mounted with PBS. γ-TuSC bound to MTs was observed under a LAS AF 6000 fluorescence microscope (Leica Microsystems, Wetzlar, Germany).

COc1cc2c(=O)c(-c3cc(OC)c4c(c3OC)OCO4)coc2cc1OCc1ccccc1 [Gatastatin, O^7-demethylbenzyl AG1]
Effect on γ-TuSC binding to MT ends: impaired γ-TuSC binding to MT ends
